Experimental findings from PubChem BioAssay (NCI) are described below.

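Method: 48-hour compound exposure of cells in 96-well plates, five concentrations, linear interpolation of endpoints. TGI marks complete inhibition of growth.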 Bounds are passed on as bounds.

Some test systems named below: OVCAR-3 ovarian; RPMI-8226 leukemia; SNB-75 CNS; NCI-H460 lung; MDA-N; UACC-62 melanoma; DU-145 prostate; SW-620 colon; SNB-19 CNS; LOX IMVI melanoma.
What all share (test): DTP human tumour cell line panel, 48 h

As usually defined, the TGI is the concentration giving total growth inhibition. A low value points to more potent growth arrest. In the case of `Cc1nc2c(cc1C(=O)NN)c(=O)n(C)c(=O)n2C`, the TGI in the assay on OVCAR-3 ovarian, in the assay with RPMI-8226 leukemia, in the assay with SNB-75 CNS, with NCI-H460 lung, in the assay with MDA-N and with UACC-62 melanoma was > 100 µM throughout. The TGI in the assay with DU-145 prostate, in the assay on SW-620 colon and in the assay on SNB-19 CNS was > 100 µM throughout.
As to `COc1c2occc2c(OC)c2c(=O)c(S(=O)(=O)NC(=O)Nc3ccc(Cl)cc3)coc12`, the TGI with OVCAR-3 ovarian, in the assay on RPMI-8226 leukemia, in the assay with NCI-H460 lung, in the assay on LOX IMVI melanoma, with MDA-N and in the assay with UACC-62 melanoma was > 10 µM in each case. Moreover, the TGI in the assay on DU-145 prostate, in the assay on SW-620 colon and in the assay on SNB-19 CNS was > 10 µM throughout.
In the case of `COC(=O)c1c(OC(C)=O)ccc2c1c1c(OC(C)=O)c3ccccc3c(OC(C)=O)c1n2Cc1cc(OC)cc(OC)c1`, the TGI is > 100 µM in the assay with OVCAR-3 ovarian; 20.8 µM with RPMI-8226 leukemia; 54.3 µM in the assay with SNB-75 CNS; > 100 µM with NCI-H460 lung; 81.4 µM with MDA-N; > 100 µM in the assay with UACC-62 melanoma. In addition, the TGI in the assay on DU-145 prostate and with SNB-19 CNS was > 100 µM each time.
Take `O=C1COC(c2ccccc2O)=NN1CCCN1CCCC1`: the TGI with OVCAR-3 ovarian, in the assay with RPMI-8226 leukemia, in the assay on SNB-75 CNS, in the assay on NCI-H460 lung, in the assay on MDA-N and with UACC-62 melanoma was > 100 µM each time. Besides, the TGI in the assay with DU-145 prostate, with SW-620 colon and with SNB-19 CNS was > 100 µM throughout.
For `CSC1=Nc2ccccc2-c2nc(-c3ccccc3)cc(-c3ccccc3)c2C1`, the TGI is > 100 µM in the assay on RPMI-8226 leukemia; 16.8 µM in the assay on SNB-75 CNS; > 100 µM in the assay with NCI-H460 lung; > 100 µM with LOX IMVI melanoma; > 100 µM in the assay on MDA-N; 60.5 µM with UACC-62 melanoma. The TGI in the assay on DU-145 prostate, with SW-620 colon and in the assay with SNB-19 CNS was > 100 µM in each case.
With `Cc1ccccc1N=C(N)NC#N`, the TGI in the assay on RPMI-8226 leukemia, with SNB-75 CNS, in the assay on NCI-H460 lung, with LOX IMVI melanoma, in the assay with MDA-N and in the assay with UACC-62 melanoma was > 100 µM each time. In addition, the TGI in the assay on DU-145 prostate, in the assay with SW-620 colon and in the assay with SNB-19 CNS was > 100 µM throughout.
On to `Nc1ccc2c(c1)C1Oc3ccccc3CC1CO2` (stereo not given), for which the TGI in the assay with OVCAR-3 ovarian, in the assay with RPMI-8226 leukemia, in the assay on LOX IMVI melanoma, in the assay with MDA-N, in the assay on UACC-62 melanoma and in the assay on DU-145 prostate was > 100 µM throughout. For the same compound, the TGI in the assay with SW-620 colon was > 100 µM.
Turning to `CCNc1nc(N)c(C(=O)c2ccc(Cl)cc2)s1`, the TGI was 65.4 µM in the assay on OVCAR-3 ovarian; > 100 µM with RPMI-8226 leukemia; > 100 µM in the assay on NCI-H460 lung; > 100 µM in the assay with LOX IMVI melanoma; > 100 µM in the assay on MDA-N; > 100 µM in the assay on UACC-62 melanoma. Also, the TGI in the assay on DU-145 prostate is > 100 µM; in the assay on SW-620 colon it was > 100 µM; in the assay on SNB-19 CNS it was 58.8 µM.
For `Cc1oc2nc1C(=O)NCc1nc(cs1)C(=O)N[C@H](C(C)C)c1nc(cs1)C(=O)N[C@H]2C`, the TGI was > 100 µM with OVCAR-3 ovarian; 54.4 µM in the assay on RPMI-8226 leukemia; > 100 µM in the assay on SNB-75 CNS; > 100 µM in the assay on NCI-H460 lung; > 100 µM in the assay on MDA-N; > 100 µM in the assay on UACC-62 melanoma. Also, the TGI in the assay on DU-145 prostate, with SW-620 colon and with SNB-19 CNS was > 100 µM throughout.
On to `O=[N+]([O-])C(/C(Cl)=C(/Cl)N1CCOCC1)=C1\NCCO1`, for which the TGI in the assay on OVCAR-3 ovarian, in the assay with RPMI-8226 leukemia, with SNB-75 CNS, in the assay with NCI-H460 lung, in the assay on MDA-N and with UACC-62 melanoma was > 100 µM in each case. Further, the TGI in the assay on DU-145 prostate, in the assay with SW-620 colon and in the assay on SNB-19 CNS was > 100 µM in each case.
Consider `N/C(=N\N=C\c1ccc2c(c1)OCO2)NO`, for which the TGI was 59.1 µM in the assay with OVCAR-3 ovarian; 56.9 µM with RPMI-8226 leukemia; > 100 µM in the assay with NCI-H460 lung; 82.5 µM with LOX IMVI melanoma; > 100 µM in the assay on MDA-N; 49.2 µM in the assay with UACC-62 melanoma. The TGI in the assay on DU-145 prostate was 99 µM; in the assay on SW-620 colon it was > 100 µM; with SNB-19 CNS, > 100 µM.
Regarding `Cc1cc2c(cc1-c1cc3c(cc1C)C(C(C)C)=C(O)C(=O)/C3=C\Nc1nc(-c3ccccc3)cs1)/C(=C/Nc1nc(-c3ccccc3)cs1)C(=O)C(O)=C2C(C)C`, the TGI with OVCAR-3 ovarian is 36 µM; in the assay on RPMI-8226 leukemia, > 100 µM; in the assay with SNB-75 CNS, > 100 µM; in the assay with NCI-H460 lung, 46 µM; in the assay on MDA-N it was > 100 µM; in the assay with UACC-62 melanoma, 35.7 µM. In addition, the TGI in the assay on DU-145 prostate is 55 µM; with SW-620 colon it was 29 µM; in the assay on SNB-19 CNS it was 37.9 µM.
